For this assay, the target named is T1, TRPV3 in KU-19-19 cells (Homo sapiens, UniProt Q8NET8).
T1 construct: host or cells: KU-19-19
T1 sequence (Q8NET8 1-790): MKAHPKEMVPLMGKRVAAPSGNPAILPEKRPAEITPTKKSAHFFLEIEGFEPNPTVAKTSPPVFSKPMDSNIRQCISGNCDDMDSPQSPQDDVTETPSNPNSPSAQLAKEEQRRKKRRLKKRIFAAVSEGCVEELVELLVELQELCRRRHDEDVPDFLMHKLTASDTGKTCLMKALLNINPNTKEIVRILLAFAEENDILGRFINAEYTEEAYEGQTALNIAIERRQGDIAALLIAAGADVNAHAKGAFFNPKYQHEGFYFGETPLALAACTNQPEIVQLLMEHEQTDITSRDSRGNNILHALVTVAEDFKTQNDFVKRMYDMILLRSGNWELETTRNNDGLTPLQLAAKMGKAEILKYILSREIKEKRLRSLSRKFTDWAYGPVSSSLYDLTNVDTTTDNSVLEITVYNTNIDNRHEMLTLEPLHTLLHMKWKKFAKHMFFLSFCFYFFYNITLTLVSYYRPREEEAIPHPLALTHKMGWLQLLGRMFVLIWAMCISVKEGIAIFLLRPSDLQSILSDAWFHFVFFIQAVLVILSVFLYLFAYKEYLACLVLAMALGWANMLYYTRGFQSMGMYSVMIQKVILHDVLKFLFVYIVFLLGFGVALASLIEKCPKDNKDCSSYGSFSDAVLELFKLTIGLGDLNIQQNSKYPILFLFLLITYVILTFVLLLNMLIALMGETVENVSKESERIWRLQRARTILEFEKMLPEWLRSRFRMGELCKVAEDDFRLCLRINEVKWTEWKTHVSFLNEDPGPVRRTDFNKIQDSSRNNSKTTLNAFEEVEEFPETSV
The assay can be described thus: calcium assay concentration-response in KU-19-19 cells. It is filed as cell-based. As to conditions: read-out: EC50 for AV3-1-induced TRPV3 activation in KU-19-19 cells. Here is the method:
Supplementation of the cellular cholesterol content in KU-19-19 cells was performed by adding cholesterol-loaded methyl-β-cyclodextrin (MβCD) to the cells. Cholesterol was dissolved in ethanol (20 mg/mL) by heating at 65 °C for 15 minutes. The cholesterol solution was then added dropwise to a 250 mM MβCD solution prepared in phosphate-buffered solution (PBS; Sigma Aldrich) at a 1:4 (v/v) ratio, yielding a stock containing 200 mM MβCD-cholesterol. KU-19-19 cells were incubated for 15 minutes at 37 °C in HBS containing 2.5 mM MβCD-cholesterol. As a control, KU-19-19 cells were incubated in HBS without MβCD-cholesterol supplement under the same conditions.
All fluorometric Ca^2+ assays were performed in HBS buffer at room temperature. […] For the primary compound screening and the generation of concentration-response analyses, a robotic liquid handling station (Freedom Evo 150; Tecan) with a built-in custom-made fluorescence plate imager was used. […] Fluorescence was excited using a 470-nm light-emitting diode, and emitted light was imaged through a 515-nm–long pass filter with a cooled Zyla 5.5 camera (Andor). Fluorescence was recorded and processed under the control of the μ-Manager 2.0 gamma software (https://micro-manager.org.[28]). After recording baseline fluorescence, compounds were dispensed into the wells via the liquid handling device. […]

Like-named read-outs stand apart in the source and are kept apart here.

For orientation: EC50 means the concentration giving half of the maximal effect. For the molecule `COC(=O)C12CN(Cc3ccccc3)CC1(C(=O)OC)CN(Cc1ccccc1)C2` (centres unmarked) [AV3-1], the EC50 was found to be 19 ± 1.5 µM (cells not supplemented with cholesterol) and 6.3 ± 1.9 µM (cholesterol supplementation (2.5 mM MβCD-cholesterol)).

The values above are taken from publication PMC12881674, “Activation of TRPV3 channels in bladder cancer cells stimulates ATP release” (Molecular Pharmacology, 2025).
